Test results: PubChem BioAssay AID248 (DTP/NCI, 2004)
Inconclusive results and toxic doses are left out.

Tested on: L1210 leukemia ip in BDF1 mice, survival T/C
Test: NCI In Vivo Anticancer Drug Screen. Data for tumor model L1210 Leukemia (intraperitoneal) in B6D2F1 (BDF1) mice
Conditions: endpoint: mean survival time, higher = longer survival
Outline: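 Transplanted-tumor mice were given test agent; controls received vehicle only. Survival readings from the two groups were divided (treated over control).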

[1] = dose: 50.0 mg/kg/injection, schedule: Q01DX009 (ip), vehicle: saline with Tween-80
[2] = dose: 100.0 mg/kg/injection, schedule: Q01DX009 (ip), vehicle: saline with Tween-80
[3] = dose: 200.0 mg/kg/injection, schedule: Q01DX009 (ip), vehicle: saline with Tween-80
[4] = dose: 100.0 mg/kg/injection, schedule: Q04DX002 (ip), vehicle: Klucel (hydroxypropylcellulose) (HPC)
[5] = dose: 25.0 mg/kg/injection, schedule: Q01DX009 (ip), vehicle: saline with Tween-80
[6] = dose: 100.0 mg/kg/injection, schedule: Q01DX009 (ip), vehicle: Klucel (hydroxypropylcellulose) (HPC)
[7] = dose: 100.0 mg/kg/injection, schedule: Q04DX003 (ip), vehicle: Klucel (hydroxypropylcellulose) (HPC)
[8] = dose: 200.0 mg/kg/injection, schedule: Q01DX009 (ip), vehicle: Klucel (hydroxypropylcellulose) (HPC)
[9] = dose: 200.0 mg/kg/injection, schedule: Q04DX003 (ip), vehicle: Klucel (hydroxypropylcellulose) (HPC)
[10] = dose: 400.0 mg/kg/injection, schedule: Q01DX009 (ip), vehicle: Klucel (hydroxypropylcellulose) (HPC)
[11] = dose: 400.0 mg/kg/injection, schedule: Q04DX003 (ip), vehicle: Klucel (hydroxypropylcellulose) (HPC)
[12] = dose: 100.0 mg/kg/injection, schedule: Q01DX001 (ip), vehicle: saline
[13] = dose: 200.0 mg/kg/injection, schedule: Q01DX001 (ip), vehicle: saline
[14] = dose: 400.0 mg/kg/injection, schedule: Q01DX001 (ip), vehicle: saline
[15] = dose: 100.0 mg/kg/injection, schedule: Q04DX003 (ip), vehicle: saline with Tween-80
[16] = dose: 200.0 mg/kg/injection, schedule: Q04DX003 (ip), vehicle: saline with Tween-80

CN=C(NC)c1ccc(NC(=O)c2ccc(C(=O)Nc3ccc(C(=NC)NC)cc3)c(N)c2)cc1
T/C (dose: 0.28 mg/kg/injection, schedule: Q01DX Z (ip), vehicle: water): 98 % of control | T/C (dose: 0.56 mg/kg/injection, schedule: Q01DX Z (ip), vehicle: water): 93 % of control | T/C (dose: 1.12 mg/kg/injection, schedule: Q01DX Z (ip), vehicle: water): 170 % of control | T/C (dose: 2.25 mg/kg/injection, schedule: Q01DX Z (ip), vehicle: water): 157 % of control | T/C (dose: 4.5 mg/kg/injection, schedule: Q01DX Z (ip), vehicle: carboxymethylcellulose (CMC)): 180 % of control | T/C (dose: 9.0 mg/kg/injection, schedule: Q01DX Z (ip), vehicle: carboxymethylcellulose (CMC)): 159 % of control | T/C (dose: 36.0 mg/kg/injection, schedule: Q01DX Z (ip), vehicle: carboxymethylcellulose (CMC)): 117 % of control | T/C (dose: 50.0 mg/kg/injection, schedule: Q01DX Z (oral), vehicle: water): 102 % of control | T/C (dose: 100.0 mg/kg/injection, schedule: Q01DX Z (oral), vehicle: water): 105 % of control | T/C (dose: 200.0 mg/kg/injection, schedule: Q01DX Z (oral), vehicle: water): 103 % of control | T/C (dose: 400.0 mg/kg/injection, schedule: Q01DX Z (oral), vehicle: water): 103 % of control

O=C(O)CSc1ccc(Cl)cc1
T/C [1]: 100 % of control | T/C [2]: 93 % of control | T/C [3]: 94 % of control

CC(Cl)CNC(=O)Nc1cccc2c1CCCC2 (stereo unspecified)
T/C (dose: 50.0 mg/kg/injection, schedule: Q01DX001 (ip), vehicle: saline with Tween-80): 103 % of control | T/C (dose: 100.0 mg/kg/injection, schedule: Q01DX001 (ip), vehicle: saline with Tween-80): 100 % of control | T/C [2]: 96 % of control | T/C (dose: 200.0 mg/kg/injection, schedule: Q01DX001 (ip), vehicle: saline with Tween-80): 94 % of control | T/C [3]: 95 % of control | T/C (dose: 400.0 mg/kg/injection, schedule: Q01DX001 (ip), vehicle: saline with Tween-80): 91 % of control | T/C (dose: 400.0 mg/kg/injection, schedule: Q01DX009 (ip), vehicle: saline with Tween-80): 90 % of control

[CH3][Sn]([CH3])([CH3])[c]1ccc(-c2ccccc2)cc1
T/C (dose: 25.0 mg/kg/injection, schedule: Q04DX002 (ip), vehicle: Klucel (hydroxypropylcellulose) (HPC)): 92 % of control | T/C (dose: 50.0 mg/kg/injection, schedule: Q04DX002 (ip), vehicle: Klucel (hydroxypropylcellulose) (HPC)): 95 % of control | T/C [4]: 100 % of control

Cc1ccc(S(=O)(=O)OCC2OC3(COS(=O)(=O)c4ccc(C)cc4)OC(C)(C)OC3C2O)cc1 (stereo unspecified)
T/C [5]: 92 % of control | T/C [1]: 87 % of control | T/C [2]: 87 % of control

CN1C(=O)NC2ON=C(c3ccccc3)C2C1=O (stereo unspecified)
T/C [6]: 103 % of control | T/C [7]: 100 % of control | T/C [8]: 104 % of control | T/C [9]: 103 % of control | T/C [10]: 104 % of control | T/C [11]: 100 % of control

O=C(O)CN1C(=O)CNC12CCCC2
T/C [12]: 100 % of control | T/C [13]: 108 % of control | T/C [14]: 93 % of control

CC(C)(Oc1cccc2ccccc12)C(=O)O
T/C [15]: 100 % of control | T/C [16]: 105 % of control | T/C (dose: 400.0 mg/kg/injection, schedule: Q04DX003 (ip), vehicle: saline with Tween-80): 93 % of control

Nc1cc2ncccc2c2ncccc12
T/C (dose: 75.0 mg/kg/injection, schedule: Q01DX001 (ip), vehicle: saline): 107 % of control | T/C (dose: 150.0 mg/kg/injection, schedule: Q01DX001 (ip), vehicle: saline): 102 % of control

CC(=O)OCCc1cccc(C)c1
T/C [4]: 104 % of control | T/C (dose: 200.0 mg/kg/injection, schedule: Q04DX002 (ip), vehicle: Klucel (hydroxypropylcellulose) (HPC)): 115 % of control | T/C (dose: 400.0 mg/kg/injection, schedule: Q04DX002 (ip), vehicle: Klucel (hydroxypropylcellulose) (HPC)): 108 % of control

Cc1csc(NC(=O)C2C3CCC(O3)C2C(=O)O)n1 (stereo unspecified)
T/C (dose: 5.0 mg/kg/injection, schedule: Q01DX001 (ip), vehicle: carboxymethylcellulose (CMC)): 95 % of control | T/C (dose: 10.0 mg/kg/injection, schedule: Q01DX001 (ip), vehicle: carboxymethylcellulose (CMC)): 101 % of control

COc1ccc(NC(=O)Nc2ccc(C)c(C)c2)cc1
T/C [6]: 92 % of control | T/C [7]: 97 % of control | T/C [8]: 91 % of control | T/C [9]: 103 % of control | T/C [10]: 91 % of control | T/C [11]: 95 % of control

OC(COc1ccc(Cl)cc1)CN1CCN(c2ccc(Cl)cc2)CC1 (stereo unspecified)
T/C [12]: 97 % of control | T/C [13]: 95 % of control | T/C [14]: 95 % of control

O=C(Nc1ccc(Cl)cc1)Oc1ccc(Cl)cc1Cl
T/C (dose: 25.0 mg/kg/injection, schedule: Q01DX009 (ip), vehicle: DMSO): 92 % of control | T/C (dose: 25.0 mg/kg/injection, schedule: Q04DX002 (ip), vehicle: DMSO): 94 % of control | T/C (dose: 50.0 mg/kg/injection, schedule: Q01DX009 (ip), vehicle: DMSO): 86 % of control | T/C (dose: 50.0 mg/kg/injection, schedule: Q04DX002 (ip), vehicle: DMSO): 87 % of control | T/C (dose: 200.0 mg/kg/injection, schedule: Q04DX002 (ip), vehicle: DMSO): 96 % of control

Cc1ccc(N2C(=O)C=C(c3ccccc3)C2=O)cc1
T/C (dose: 75.0 mg/kg/injection, schedule: Q04DX003 (ip), vehicle: Klucel (hydroxypropylcellulose) (HPC)): 104 % of control | T/C (dose: 150.0 mg/kg/injection, schedule: Q04DX003 (ip), vehicle: Klucel (hydroxypropylcellulose) (HPC)): 105 % of control | T/C (dose: 300.0 mg/kg/injection, schedule: Q04DX003 (ip), vehicle: Klucel (hydroxypropylcellulose) (HPC)): 104 % of control

COc1cc2c(cc1OC)C1CCc3cc4c(cc3C1N=C2)OCO4 (stereo unspecified)
T/C (dose: 80.0 mg/kg/injection, schedule: Q01DX009 (ip), vehicle: saline): 96 % of control | T/C (dose: 120.0 mg/kg/injection, schedule: Q01DX009 (ip), vehicle: saline): 98 % of control | T/C (dose: 240.0 mg/kg/injection, schedule: Q01DX009 (ip), vehicle: saline): 98 % of control | T/C (dose: 400.0 mg/kg/injection, schedule: Q01DX009 (ip), vehicle: saline): 91 % of control

COc1ccc(-c2nc(SCc3ccccc3)[nH]c(=O)c2CCO)cc1
T/C [7]: 95 % of control | T/C [9]: 88 % of control | T/C [11]: 93 % of control

N#C/C(=C\c1cccn1Cc1ccc2ccccc2c1)C(N)=O
T/C (dose: 100.0 mg/kg/injection, schedule: Q04DX002 (ip), vehicle: saline with Tween-80): 104 % of control | T/C (dose: 200.0 mg/kg/injection, schedule: Q04DX002 (ip), vehicle: saline with Tween-80): 96 % of control | T/C (dose: 400.0 mg/kg/injection, schedule: Q04DX002 (ip), vehicle: saline with Tween-80): 93 % of control

ClC1=CCCCC1
T/C (dose: 25.0 mg/kg/injection, schedule: Q01DX009 (ip), vehicle: acetone): 95 % of control | T/C (dose: 50.0 mg/kg/injection, schedule: Q01DX009 (ip), vehicle: acetone): 101 % of control | T/C (dose: 100.0 mg/kg/injection, schedule: Q01DX009 (ip), vehicle: acetone): 100 % of control

CC(C)OC(=S)SSc1nc2ccccc2s1
T/C [1]: 103 % of control | T/C [2]: 92 % of control | T/C [15]: 90 % of control | T/C [3]: 96 % of control | T/C [16]: 96 % of control

COC(=O)C(C)CSCc1ccccc1 (stereo unspecified)
T/C (dose: 100.0 mg/kg/injection, schedule: Q04DX002 (ip), vehicle: saline): 108 % of control | T/C (dose: 400.0 mg/kg/injection, schedule: Q04DX002 (ip), vehicle: saline): 89 % of control

O=c1[nH]ncc(Cl)c1Cl
T/C (dose: 12.5 mg/kg/injection, schedule: Q01DX009 (ip), vehicle: saline with Tween-80): 92 % of control | T/C [5]: 95 % of control | T/C [1]: 106 % of control | T/C [2]: 87 % of control | T/C [3]: 87 % of control

CC(CCC(=O)O)Cc1ccccc1 (stereo unspecified)
T/C (dose: 25.0 mg/kg/injection, schedule: Q01DX009 (ip), vehicle: saline): 101 % of control | T/C (dose: 50.0 mg/kg/injection, schedule: Q01DX009 (ip), vehicle: saline): 101 % of control | T/C (dose: 100.0 mg/kg/injection, schedule: Q01DX009 (ip), vehicle: saline): 86 % of control
